# Assay results reported in patent US11427586B2, “1,2,4-oxadiazole derivatives as liver X receptor agonists” (NOVARTIS AG, priority 2019, dated 2022).
# Read-outs that look alike come from different tables or passages of the source.
# Columns and labels:
# [1] = system: SCD1; assay: Measurement of SCD1 expression in SZ95-SCD1-HiBit cells (HiBiT assay); format: cell-based; conditions: Homo sapiens, 48 h; for EC50: SCD1 protein production, luminescence, initial dilution 1:3 in DMSO, read-out: HiBit EC50
# Text: Measurement of SCD1 Expression in SZ95-SCD1-HiBit Cells
# SCD1 expression levels in SZ95 cells were quantitated using the HiBiT system (Promega) in which a small peptide sequence (SmBiT) with a larger protein (LgBiT) reconstitutes luciferase activity and can generate a luminescent signal used for quantitation. SZ95-SCD1-HiBit cells were generated by editing the SCD1 gene of SZ95 cells resulting in the addition of an 8 amino acid linker sequence (gssggssg, SEQ ID NO:1) followed by an 11-amino acid SmBiT sequence (vsgwrlfkkis, SEQ ID NO:2) at the carboxy-terminus of the SCD1 protein. The gRNA targeting sequence used was […] (SEQ ID NO: 3) and the SCD1 insertion oligonucleotide encoding the SmBiT sequence was:
# SZ95-SCD1-HiBit cells were seeded in 384-well cell culture white plates at a density of 3000 cells/30 μl. Water was added to edge wells to avoid evaporation. Cells were incubated in a humidified incubator with 5% CO2 at 37° C. overnight. Tested compounds were diluted at a ratio of 1:3 in DMSO using an Agilent BRAVO Automated Liquid Handling Platform and, after further serial dilutions, added to cells at final concentrations starting from 18 μM. 2-(3-(3-((2-chloro-3-(trifluoromethyl)benzyl)(2,2-diphenylethyl)amino)propoxy)phenyl)acetic acid was used as a reference compound in each plate. Cells in the assay plate were incubated in a humidified incubator with 5% CO2 at 37° C. for 48 h.
# The assay plates were removed from the incubator and allowed to equilibrate to room temperature. Nano-Glo® HiBiT Detection Reagent (Promega; a mixture of Nano-Glo HiBiT Detection Buffer, Nano-Glo HiBiT Detection Substrate, and LgBiT protein, according to the manufacturer's instructions) was added into assay plates, at a volume equal to cell culture medium in each well. Plates were placed on an orbital shaker at a speed of 300-600 rpm for 10 min at room temperature, and read on an EnVision Plate Reader using luminescence detection with a 1 second read time.
# The assay measures the increase in SCD1 protein production in vitro. Amax refers to the percent EC50 of the tested compound compared to a reference compound, 2-(3-(3-((2-chloro-3-(trifluoromethyl)benzyl)(2,2-diphenylethyl)amino)propoxy)phenyl)acetic acid.
# [2] = system: SZ95 sebocytes; assay: Sentinel Lipid Assay (SLA), desaturation index in SZ95 sebocytes; format: cell-based; conditions: Homo sapiens, 72 h; for EC50: desaturation index, lowest dose used 4.6 nM, read-out: SLA EC50
# Experimental: Sentinel Lipid Assay (SLA)
# The sentinel lipid assay was used quantify the change in the global desaturation index in SZ95 sebocytes upon administration of certain LXR agonist compounds provided herein. The assay measures a smaller subset of lipid analytes in meibum (termed “sentinel lipids”) which would model the global changes the population of both saturated and desaturated lipids in the cells. In order to define this smaller subset of lipids, a complete lipid profile was recorded on dose response curves (eight levels from 4 nM to 10 uM) of Compounds 1-72. An elastic net regression model was applied separately to both the saturated and desaturated lipids to determine the minimum combination of coefficients and analytes, which could be used to adequately model the total population of lipids. The elastic net model was able to reduce the behavior of 425 lipids to 11 lipids and the correlation between the desaturation indices observed using the complete set of lipids with from the 11 sentinel lipids was 0.96.
# A medium throughput assay was created using this reduced set of sentinel lipids. A single batch is defined as triplicate examples of three unique plates (i.e., a single batch of cells is used to create nine plates for LC-MSMS analysis). Lipids were extracted from the cells using a 1:1 mixture of methylene chloride/methanol containing 10 nM of deuterated standards of triglycerides, which are used as internal standards for quantitating the lipid abundance. The lipids were separated prior to mass spectrometric analysis using a five minute HPLC gradient. The abundance of the sentinel lipids and the internal standards are measured using multiple reaction monitor mode (MRM) on a triple quadrupole mass spectrometer. The data was transformed from total ion current to nmoles/10^6 cells, which are multiplied by the coefficients from the elastic net model to determine the effective desaturated and saturated content, and therein the desaturation index of the dosed cells. In order to compare compounds from multiple batches with one another, the measure raw desaturation index was normalized by dividing it by the desaturation index of the DMSO dosed cells, and all data was assessed as the fraction by which the compound increases the desaturation index above 1.
# SZ95 (immortalized human sebaceous gland cells) cells were seeded in Greiner bio-one 96-well polypropylene plates that were pre-treated with 50 μg/mL Human Plasma Fibronectin (Thermo Fisher Scientific) at a density of 10^4 cells/135 μl. Cells were incubated in a humidified incubator with 5% CO2 at 37° C. overnight. Test compounds were diluted at a ratio of 1:3 and added to cells at final concentrations starting from 10 μM. 2-(3-(3-((2-chloro-3-(trifluoromethyl)benzyl)(2,2-diphenylethyl)amino)propoxy)phenyl)acetic acid was used as a positive control reference compound in each plate. Cells in the assay plate were incubated in a humidified incubator with 5% CO2 at 37° C. for 72 h.
# Culture medium was removed from the cells and cells in culture plates were washed with ice cold phosphate buffered saline three times. Plates were heat sealed and stored in a −80° C. freezer prior to Sentinel lipid assay. The Amax value refers to the percent EC50 of the tested compound compared to a reference compound, 2-(3-(3-((2-chloro-3-(trifluoromethyl)benzyl)(2,2-diphenylethyl)amino)propoxy)phenyl)acetic acid.
# [3] = normalized Amax based on the reference compound Amax of 100%, read-out: HiBit Normalized Amax
# [4] = SZ95-SCD1-HiBit cells, compared to reference compound, read-out: HiBit Amax
# [5] = normalized Amax based on the reference compound Amax of 100%, read-out: SLA Normalized Amax
# [6] = SZ95 cells, compared to reference compound, read-out: SLA Amax
SMILES,"Emax [1, 3]",EC50 ([1]; SZ95-SCD1-HiBit cells),"Emax [1, 4]","Emax [2, 5]",EC50 ([2]; SZ95 cells),"Emax [2, 6]"
"CC(C)CS(=O)(=O)c1ccccc1Oc1ccc(-c2noc(CN3C(=O)N(CCN4CCOCC4)C4(CCN(C(=O)c5ccncn5)CC4)C3=O)n2)cc1C(F)(F)F [Compound 34, 3-((3-(4-(2-(isobutylsulfonyl)phenoxy)-3-(trifluoromethyl)phenyl)-1,2,4-oxadiazol-5-yl)methyl)-1-(2-morpholinoethyl)-8-(pyrimidine-4-carbonyl)-1,3,8-triazaspiro[4.5]decane-2,4-dione]",85.7%,0.38 nM,81.5%,171%,≤ 4.6 nM,164%
"CC1(C)C(=O)N(Cc2nc(-c3ccc(Oc4ccccc4S(=O)(=O)CC4CCOC4)c(C(F)(F)F)c3)no2)C(=O)N1CCN1CCOCC1 (stereo not drawn) [Compound 38, 5,5-dimethyl-1-(2-morpholinoethyl)-3-((3-(4-(2-(((tetrahydrofuran-3-yl)methyl)sulfonyl)phenoxy)-3-(trifluoromethyl)phenyl)-1,2,4-oxadiazol-5-yl)methyl)imidazolidine-2,4-dione]",75.8%,5.26 nM,72.1%,160%,≤ 4.6 nM,154%
"CC(C)CS(=O)(=O)c1ccccc1Oc1ccc(-c2noc(CN3C(=O)N(CCN4CCOCC4)C4(CCN(C(=O)CCCCC(=O)O)CC4)C3=O)n2)cc1C(F)(F)F [Compound 67, 6-(3-((3-(4-(2-(isobutylsulfonyl)phenoxy)-3-(trifluoromethyl)phenyl)-1,2,4-oxadiazol-5-yl)methyl)-1-(2-morpholinoethyl)-2,4-dioxo-1,3,8-triazaspiro[4.5]decan-8-yl)-6-oxohexanoic acid]",88.9%,3.94 nM,84.5%,103%,≤ 4.6 nM,99.1%
"CC(C)CS(=O)(=O)c1ccccc1Oc1ccc(-c2noc(CN3C(=O)N(CCN4CCOCC4)C4(CCN(C5CCN(C)C5)CC4)C3=O)n2)cc1C(F)(F)F (stereo not drawn) [Compound 23, 3-((3-(4-(2-(isobutylsulfonyl)phenoxy)-3-(trifluoromethyl)phenyl)-1,2,4-oxadiazol-5-yl)methyl)-8-(1-methylpyrrolidin-3-yl)-1-(2-morpholinoethyl)-1,3,8-triazaspiro[4.5]decane-2,4-dione]",85.1%,3.48 nM,80.9%,176%,≤ 4.6 nM,169%
"CC(C)CS(=O)(=O)c1ccccc1Oc1ccc(-c2noc(CN3C(=O)N(CCC4CCOCC4)C4(CCN(C(=O)c5cnccn5)CC4)C3=O)n2)cc1C(F)(F)F [Compound 36, 3-((3-(4-(2-(isobutylsulfonyl)phenoxy)-3-(trifluoromethyl)phenyl)-1,2,4-oxadiazol-5-yl)methyl)-8-(pyrazine-2-carbonyl)-1-(2-(tetrahydro-2H-pyran-4-yl)ethyl)-1,3,8-triazaspiro[4.5]decane-2,4-dione]",81.5%,0.119 nM,77.5%,131%,≤ 4.6 nM,126%
"CC(C)CS(=O)(=O)c1ccccc1Oc1ccc(-c2noc(CN3C(=O)N(CCN4CCOCC4)C4(CCN(CC5CC5)CC4)C3=O)n2)cc1C(F)(F)F [Compound 27, 8-(cyclopropylmethyl)-3-((3-(4-(2-(isobutylsulfonyl)phenoxy)-3-(trifluoromethyl)phenyl)-1,2,4-oxadiazol-5-yl)methyl)-1-(2-morpholinoethyl)-1,3,8-triazaspiro[4.5]decane-2,4-dione]",89.1%,0.254 nM,84.7%,114%,≤ 4.6 nM,109%
"CC(C)CS(=O)(=O)c1ccccc1Oc1ccc(-c2noc(CN3C(=O)N(CCN4CCOCC4)C4(CCN(C)CC4)C3=O)n2)cc1C(F)(F)F [Compound 10, 3-((3-(4-(2-(isobutylsulfonyl)phenoxy)-3-(trifluoromethyl)phenyl)-1,2,4-oxadiazol-5-yl)methyl)-8-methyl-1-(2-morpholinoethyl)-1,3,8-triazaspiro[4.5]decane-2,4-dione]",111%,0.079 nM,106%,129%,≤ 4.6 nM,124%
"CC(C)CS(=O)(=O)c1ccccc1Oc1ccc(-c2noc(CN3C(=O)N(CCN4CCOCC4)C4(CCC4)C3=O)n2)cc1C(F)(F)F [Compound 45, 7-((3-(4-(2-(isobutylsulfonyl)phenoxy)-3-(trifluoromethyl)phenyl)-1,2,4-oxadiazol-5-yl)methyl)-5-(2-morpholinoethyl)-5,7-diazaspiro[3.4]octane-6,8-dione]",94.2%,2.52 nM,89.6%,162%,≤ 4.6 nM,155%
"CS(=O)(=O)c1ccccc1Oc1ccc(-c2noc(CN3C(=O)N(CCN4CCOCC4)C4(CCN(C5CCC5)CC4)C3=O)n2)cc1C(F)(F)F [Compound 15, 8-cyclobutyl-3-((3-(4-(2-(methylsulfonyl)phenoxy)-3-(trifluoromethyl)phenyl)-1,2,4-oxadiazol-5-yl)methyl)-1-(2-morpholinoethyl)-1,3,8-triazaspiro[4.5]decane-2,4-dione]",88.3%,0.101 nM,84%,121%,≤ 4.6 nM,116%
"CC(C)CS(=O)(=O)c1ccccc1Oc1ccc(-c2noc(CN3C(=O)N(CCN4CCOCC4)C4(CCN(CC5CCOCC5)CC4)C3=O)n2)cc1C(F)(F)F [Compound 26, 3-((3-(4-(2-(isobutylsulfonyl)phenoxy)-3-(trifluoromethyl)phenyl)-1,2,4-oxadiazol-5-yl)methyl)-1-(2-morpholinoethyl)-8-((tetrahydro-2H-pyran-4-yl)methyl)-1,3,8-triazaspiro[4.5]decane-2,4-dione]",96.3%,0.796 nM,91.6%,113%,≤ 4.6 nM,108%
"CC(C)CS(=O)(=O)c1ccccc1Oc1ccc(-c2noc(CN3C(=O)CN(CCN4CCOCC4)C3=O)n2)cc1C(F)(F)F [Compound 44, 3-((3-(4-(2-(isobutylsulfonyl)phenoxy)-3-(trifluoromethyl)phenyl)-1,2,4-oxadiazol-5-yl)methyl)-1-(2-morpholinoethyl)imidazolidine-2,4-dione]",77%,6.65 nM,73.2%,86.4%,≤ 4.6 nM,82.9%
